Columns and labels:
(α4)3(β2)2 nAChR = target: T1, (α4)3(β2)2 nAChR (Homo sapiens, UniProt P17787+P43681); assay: Two-electrode voltage-clamp of ACh-induced currents in Xenopus oocytes; assay type: cell-based
T1 construct: expressed in transfected cells; host or cells: Xenopus laevis oocytes injected with cRNA
Description: (§1) To begin to characterize LY2087101 interaction with the heteropentameric α4β2 nAChRs, we examined the selectivity of LY2087101 for the two α4β2 nAChR isoforms; high-agonist sensitivity (α4)2(β2)3 and low-agonist sensitivity (α4)3(β2)2 nAChRs. Xenopus oocytes were injected with α4 and β2 subunits RNAs at ratios 8:1 and 1:8 to favor expression of (α4)3(β2)2 and (α4)2(β2)3 nAChRs, respectively.
(§2) Ovarian lobules were surgically harvested from oocytes-positive female Xenopus laevis (NASCO, Fort Atkinson, WI) according to an animal use protocol approved by the Texas A&M Health Sciences Center Institutional Animals Care and Use Committee. The Texas A&M Health Sciences Center Research Facility is registered as an animal research facility with the United States Department of Agriculture and is fully accredited by the American Association for Accreditation of Laboratory Animal Care (AAALAC). For oocytes defolliculation, ovarian lobes were treated with 3 mg/ml collagenase type 2 (Worthington Biomedical, Lakewood, NJ) in Ca + 2-free buffer (85 mM NaCl, 2.5 mM KCl, 1 mM MgCl2, 5 mM HEPES, pH 7.6). Collagenase treatment was allowed to proceed for 3 hours at room temperature with gentle shaking then oocytes were washed several times with buffer to remove collagenase then with ND96-gentamicine buffer. Healthy Stage V and VI oocytes were visually selected and maintained at 18 °C in modified ND96-gentamicine buffer (96 mM NaCl, 2 mM KCl, 1.8 mM CaCl2, 1 mM MgCl2, 5 mM HEPES, 50 µg/ml gentamicin, pH 7.6). Oocytes were injected with 50–100 ng of the desired nAChR subunits cRNA mix at ratios of 8α:1β or 1α:8β to express nAChRs with subunit stoichiometries of 3α:2β (low agonist sensitivity) or 2α:3β (high agonist sensitivity), respectively.
(§3) Oocytes were continuously perfused with recording buffer (100 mM NaCl, 2 mM KCl, 1 mM CaCl2, 0.8 mM MgCl2, 1 mM EGTA, 10 mM Hepes, pH 7.5) except during periods of drug applications.

(α4)2(β2)3 nAChR = target: T2, (α4)2(β2)3 nAChR (Homo sapiens, UniProt P17787+P43681); assay: as above; assay type: cell-based
T2 construct: expressed in transfected cells; host or cells: Xenopus laevis oocytes injected with cRNA
T2 sequence (P43681 29-627 limits assumed): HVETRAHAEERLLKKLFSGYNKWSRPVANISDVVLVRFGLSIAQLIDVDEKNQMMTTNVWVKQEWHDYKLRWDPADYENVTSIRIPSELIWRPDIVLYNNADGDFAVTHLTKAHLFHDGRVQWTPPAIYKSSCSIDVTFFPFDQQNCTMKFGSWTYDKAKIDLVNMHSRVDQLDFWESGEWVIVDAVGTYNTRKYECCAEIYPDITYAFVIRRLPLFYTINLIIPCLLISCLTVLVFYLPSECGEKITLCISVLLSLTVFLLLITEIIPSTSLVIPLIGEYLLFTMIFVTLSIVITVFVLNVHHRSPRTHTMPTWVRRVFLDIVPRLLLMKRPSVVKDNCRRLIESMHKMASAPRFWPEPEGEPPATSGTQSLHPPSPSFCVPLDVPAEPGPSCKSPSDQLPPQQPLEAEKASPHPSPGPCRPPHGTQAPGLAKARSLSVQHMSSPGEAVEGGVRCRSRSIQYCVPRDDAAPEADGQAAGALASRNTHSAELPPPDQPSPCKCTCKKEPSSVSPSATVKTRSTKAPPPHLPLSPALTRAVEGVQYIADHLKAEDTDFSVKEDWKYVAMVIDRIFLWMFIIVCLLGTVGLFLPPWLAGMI
T2 sequence (P17787 26-502): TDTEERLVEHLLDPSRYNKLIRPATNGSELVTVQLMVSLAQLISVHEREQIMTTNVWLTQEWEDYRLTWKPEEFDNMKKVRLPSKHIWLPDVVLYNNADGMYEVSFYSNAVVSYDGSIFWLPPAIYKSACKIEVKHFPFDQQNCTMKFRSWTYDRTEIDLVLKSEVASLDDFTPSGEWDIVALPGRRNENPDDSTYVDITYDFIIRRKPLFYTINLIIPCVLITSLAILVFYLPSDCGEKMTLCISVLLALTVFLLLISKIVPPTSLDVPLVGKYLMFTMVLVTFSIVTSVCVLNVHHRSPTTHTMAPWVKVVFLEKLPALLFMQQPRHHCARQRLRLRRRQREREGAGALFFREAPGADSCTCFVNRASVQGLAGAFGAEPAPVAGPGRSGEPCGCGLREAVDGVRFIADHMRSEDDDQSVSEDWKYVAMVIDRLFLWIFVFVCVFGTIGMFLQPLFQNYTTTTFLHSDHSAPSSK
Description: as §1, §2, §3

[1] = ACh alone (control), normalized to 1 mM ACh
[2] = in the presence of 1 µM LY2087101

T1 sequence (P43681 29-627 limits assumed): as the sequence (P43681 29-627 limits assumed) above
T1 sequence (P17787 26-502): as the sequence (P17787 26-502) above

CC(=O)OCC[N+](C)(C)C [ACh, Acetylcholine chloride]
ACh h (Hill coefficient) ((α4)3(β2)2 nAChR; ACh alone (control)): 0.66 ± 0.06
ACh Imax ((α4)3(β2)2 nAChR; [1]): 117 ± 6%
ACh h (Hill coefficient) ((α4)3(β2)2 nAChR; [2]): 0.7 ± 0.1
ACh h (Hill coefficient) ((α4)2(β2)3 nAChR; ACh alone (control)): 1.2 ± 0.03
ACh Imax ((α4)2(β2)3 nAChR; [1]): 100 ± 1%
ACh h (Hill coefficient) ((α4)2(β2)3 nAChR; [2]): 1.0 ± 0.04

From publication PMC5775429, “LY2087101 and dFBr share transmembrane binding sites in the (α4)3(β2)2 Nicotinic Acetylcholine Receptor” (Scientific Reports, 2018)
